Data from patent publication US11053204B2, “Pyrimidinyloxy benzene derivatives as herbicides” (FMC Corporation, priority 2015, dated 2021).

What was measured:
Type in all cases: in vivo
[1] = tested on: ragweed (common ragweed, Ambrosia elatior); assay: Test A preemergence, visual injury rating; details: Ambrosia artemisiifolia, pre-emergence, 240 h, 0 to 100 scale (0 no effect, 100 complete control), read-out: Ragweed plant response rating
Method in brief: (§1)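 Injury scores run from 0, no effect, to 100, complete control, judged by eye against untreated plants roughly 10 days after treatment. Chemicals carried a surfactant in a non-phytotoxic solvent and went onto loam–sand soil preemergence or onto one- to two-leaf seedlings postemergence.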

[2] = tested on: Italian ryegrass (Lolium multiflorum); assay: Test A preemergence, visual injury rating; details: Lolium multiflorum, pre-emergence, 240 h, 0 to 100 scale (0 no effect, 100 complete control), read-out: Ryegrass, Italian plant response rating
Method in brief: as §1

[3] = tested on: barnyardgrass (Echinochloa crus-galli); assay: Test A preemergence, visual injury rating; details: Echinochloa crus-galli, pre-emergence, 240 h, 0 to 100 scale (0 no effect, 100 complete control), read-out: Barnyardgrass plant response rating
Method in brief: as §1

kochia (Kochia scoparia) = assay: Test A preemergence, visual injury rating; details: Bassia scoparia, pre-emergence, 240 h, 0 to 100 scale (0 no effect, 100 complete control), read-out: Kochia plant response rating
Method in brief: as §1

[4] = tested on: pigweed (Amaranthus retroflexus); assay: Test A preemergence, visual injury rating; details: Amaranthus retroflexus, pre-emergence, 240 h, 0 to 100 scale (0 no effect, 100 complete control), read-out: Pigweed plant response rating
Method in brief: as §1

[5] = tested on: giant foxtail (Setaria faberii); assay: Test A preemergence, visual injury rating; details: Setaria faberi, pre-emergence, 240 h, 0 to 100 scale (0 no effect, 100 complete control), read-out: Foxtail, Giant plant response rating
Method in brief: as §1

[6] = tested on: ragweed (common ragweed, Ambrosia elatior); assay: Test C preemergence, plant response rating; details: Ambrosia artemisiifolia, pre-emergence, Preemergence
Text: (§2) Seeds of plant species selected from blackgrass (Alopecurus myosuroides), ryegrass, Italian (Italian ryegrass, Lolium multiflorum), wheat (winter wheat, Triticum aestivum), galium (catchweed bedstraw, Galium aparine), corn (Zea mays), crabgrass, large (large crabgrass, Digitaria sanguinalis), foxtail, giant (giant foxtail, Setaria faberii), johnsongrass (Sorghum halepense), lambsquarters (Chenopodium album), morningglory (Ipomoea coccinea), nutsedge, yellow (yellow nutsedge, Cyperus esculentus), pigweed (Amaranthus retroflexus), ragweed (common ragweed, Ambrosia elatior), soybean (Glycine max), barnyardgrass (Echinochloa crus-galli), oilseed rape (Brassica napus), pigweed, palmer (palmer pigweed, Amaranthus palmeri), waterhemp (common waterhemp, Amaranthus rudis), velvetleaf (Abutilon theophrasti), kochia (Kochia scoparia), surinam grass (Brachiaria decumbens), nightshade (eastern black nightshade, Solanum ptycanthum), wild poinsettia (Euphorbia heterophylla), windgrass (Apera spica-venti), and oat, wild (wild oat Avena fatua), were planted into a blend of loam soil and sand or a silt loam soil and treated preemergence with test chemicals formulated in a non-phytotoxic solvent mixture which included a surfactant.
(§3) At the same time, plants selected from these crop and weed species and also chickweed (common chickweed, Stellaria media), buckwheat, wild (wild buckwheat, Polygonum convolvulus), wild mustard (Sinapis arvensis), field poppy (Papaver rhoeas), field violet (Viola arvensis), geranium, cutleaf (cutleaf geranium, Geranium dissectum), Canada thistle (Cirsium arvense), and speedwell (bird's-eye speedwell, Veronica persica), were planted in pots containing Sunshine Redi-Earth® planting medium comprising spaghnum peat moss, vermiculite, starter nutrients and dolomitic limestone and treated with postemergence applications of test chemicals formulated in the same manner. Plants ranged in height from 2 to 18 cm (1- to 4-leaf stage) for postemergence treatments. Treated plants and controls were maintained in a greenhouse for 13 to 15 d, after which time all species were compared to controls and visually evaluated. Plant response ratings, summarized in Table C, are based on a scale of 0 to 100 where 0 is no effect and 100 is complete control. A dash (-) response means no test result.

[7] = tested on: foxtail, giant (giant foxtail, Setaria faberii); assay: Test C preemergence, plant response rating; details: Setaria faberi, pre-emergence, Preemergence
Text: as §2, §3

corn (Zea mays) = assay: Test C preemergence, plant response rating; details: Zea mays, pre-emergence, Preemergence
Text: as §2, §3

[8] = tested on: ryegrass, Italian (Italian ryegrass, Lolium multiflorum); assay: Test C preemergence, plant response rating; details: Lolium multiflorum, pre-emergence, Preemergence
Text: as §2, §3

[9] = tested on: crabgrass, large (large crabgrass, Digitaria sanguinalis); assay: Test C preemergence, plant response rating; details: Digitaria sanguinalis, pre-emergence, Preemergence
Text: as §2, §3

[10] = tested on: oilseed rape (Brassica napus); assay: Test C preemergence, plant response rating; details: Brassica napus, pre-emergence, Preemergence
Text: as §2, §3

soybean (Glycine max) = assay: Test C preemergence, plant response rating; details: Glycine max, pre-emergence, Preemergence
Text: as §2, §3

[11] = tested on: blackgrass (Alopecurus myosuroides); assay: Test C preemergence, plant response rating; details: Alopecurus myosuroides, pre-emergence, Preemergence
Text: as §2, §3

Structure (SMILES): N#Cc1cccc(Oc2ncc(Cl)cn2)c1CCCCC(F)(F)F [Compound 73, 3-[(5-chloro-2-pyrimidinyl)oxy]-2-(5,5,5-trifluoropentyl)benzonitrile]
- pest or weed control at 125 g/ha ([1]; 125 g ai/ha): 10%
- pest or weed control at 500 g/ha ([1]; 500 g ai/ha): 50%
- pest or weed control at 125 g/ha ([2]; 125 g ai/ha): 50%
- pest or weed control at 500 g/ha ([2]; 500 g ai/ha): 90%
- pest or weed control at 125 g/ha ([3]; 125 g ai/ha): 100%
- pest or weed control at 500 g/ha ([3]; 500 g ai/ha): 100%
- pest or weed control at 125 g/ha (kochia (Kochia scoparia); 125 g ai/ha): 100%
- pest or weed control at 500 g/ha (kochia (Kochia scoparia); 500 g ai/ha): 100%
- pest or weed control at 125 g/ha ([4]; 125 g ai/ha): 100%
- pest or weed control at 500 g/ha ([4]; 500 g ai/ha): 100%
- pest or weed control at 125 g/ha ([5]; 125 g ai/ha): 100%
- pest or weed control at 500 g/ha ([5]; 500 g ai/ha): 100%
- pest or weed control at 125 g/ha ([6]; 125 g ai/ha, scale of 0 to 100): 25%
- pest or weed control at 16 g/ha ([6]; 16 g ai/ha, scale 0 to 100): 0%
- pest or weed control at 31 g/ha ([6]; 31 g ai/ha, scale 0 to 100): 0%
- pest or weed control at 62 g/ha ([6]; 62 g ai/ha, scale 0 to 100): 10%
- pest or weed control at 62 g/ha ([7]; 62 g ai/ha, scale of 0 to 100): 100%
- pest or weed control at 125 g/ha ([7]; 125 g ai/ha, scale of 0 to 100): 100%
- pest or weed control at 16 g/ha ([7]; 16 g ai/ha, scale 0 to 100): 98%
- pest or weed control at 31 g/ha ([7]; 31 g ai/ha, scale 0 to 100): 100%
- Corn plant response rating (crop injury, 0 = no effect, 100 = complete kill) at 62 g/ha (corn (Zea mays); 62 g ai/ha, scale of 0 to 100): 40%
- Corn plant response rating (crop injury, 0 = no effect, 100 = complete kill) at 125 g/ha (corn (Zea mays); 125 g ai/ha, scale of 0 to 100): 50%
- Corn plant response rating (crop injury, 0 = no effect, 100 = complete kill) at 16 g/ha (corn (Zea mays); 16 g ai/ha, scale 0 to 100): 0%
- Corn plant response rating (crop injury, 0 = no effect, 100 = complete kill) at 31 g/ha (corn (Zea mays); 31 g ai/ha, scale 0 to 100): 20%
- pest or weed control at 125 g/ha ([8]; 125 g ai/ha, scale of 0 to 100): 100%
- pest or weed control at 16 g/ha ([8]; 16 g ai/ha, scale 0 to 100): 30%
- pest or weed control at 31 g/ha ([8]; 31 g ai/ha, scale 0 to 100): 35%
- pest or weed control at 62 g/ha ([8]; 62 g ai/ha, scale 0 to 100): 85%
- pest or weed control at 62 g/ha ([9]; 62 g ai/ha, scale of 0 to 100): 100%
- pest or weed control at 125 g/ha ([9]; 125 g ai/ha, scale of 0 to 100): 100%
- pest or weed control at 16 g/ha ([9]; 16 g ai/ha, scale 0 to 100): 98%
- pest or weed control at 31 g/ha ([9]; 31 g ai/ha, scale 0 to 100): 100%
- plant injury at 125 g/ha ([10]; 125 g ai/ha, scale of 0 to 100): 65%
- plant injury at 16 g/ha ([10]; 16 g ai/ha, scale 0 to 100): 0%
- plant injury at 31 g/ha ([10]; 31 g ai/ha, scale 0 to 100): 20%
- plant injury at 62 g/ha ([10]; 62 g ai/ha, scale 0 to 100): 50%
- plant injury at 125 g/ha (soybean (Glycine max); 125 g ai/ha, scale of 0 to 100): 40%
- plant injury at 16 g/ha (soybean (Glycine max); 16 g ai/ha, scale 0 to 100): 0%
- plant injury at 31 g/ha (soybean (Glycine max); 31 g ai/ha, scale 0 to 100): 0%
- plant injury at 62 g/ha (soybean (Glycine max); 62 g ai/ha, scale 0 to 100): 25%
- pest or weed control at 62 g/ha ([11]; 62 g ai/ha, scale of 0 to 100): 100%
- pest or weed control at 125 g/ha ([11]; 125 g ai/ha, scale of 0 to 100): 100%
- pest or weed control at 16 g/ha ([11]; 16 g ai/ha, scale 0 to 100): 5%
- pest or weed control at 31 g/ha ([11]; 31 g ai/ha, scale 0 to 100): 98%
